pKi: −log10 of the molar value.

Ki data for 50 molecules are collected here from patent US12208088B2 (Genentech, Inc., priority 2018, dated 2025).

For the assay, the target named is HPK1 (Homo sapiens (Human), UniProt Q92918). The assay can be described thus: HPK1 Lantha binding assay ("Lanth"). Particulars: binding assays; Morrison Ki fit. The method, boiled down: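 Ki values are from Morrison-equation fitting of 665/615 nm TR-FRET signals, taking enzyme level, tracer level and tracer Kd into account. The assay mix held HPK1 (2 nM), Eu-anti-GST antibody (2 nM) and Tracer222 (15 nM). Incubations were two 1 h steps at 23 °C, on 5-fold serial compound dilutions.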
HPK1, sequence (Q92918 1-346 limits assumed): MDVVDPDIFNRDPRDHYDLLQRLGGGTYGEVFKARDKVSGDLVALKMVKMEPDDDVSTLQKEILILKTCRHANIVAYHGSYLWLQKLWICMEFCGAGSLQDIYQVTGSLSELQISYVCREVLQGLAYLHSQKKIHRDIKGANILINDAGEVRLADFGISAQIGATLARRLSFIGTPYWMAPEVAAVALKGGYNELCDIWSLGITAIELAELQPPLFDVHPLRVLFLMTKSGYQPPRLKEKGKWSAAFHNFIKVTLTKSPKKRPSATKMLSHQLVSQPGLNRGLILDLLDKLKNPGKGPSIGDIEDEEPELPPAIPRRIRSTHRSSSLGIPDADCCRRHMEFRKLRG

Usually pKi stands for the negative decadic logarithm of the Ki, by convention in mol/L. The molecule `Cc1cc(C#N)nn1[C@H]1CC[C@@]2(CNc3ncc(-c4ccc(N)c(C(=O)N(C)C)c4F)c(Cl)c32)C1` (single isomer, unassigned) [Compound 162a] gave a pKi of 6.99.

For `CN(C)C(=O)c1c(N)ccc(-c2cnc3c(c2Cl)[C@]2(CC[C@H](n4ccc(C(F)(F)F)n4)C2)CN3)c1F` (single isomer, unassigned) [Compound 168a], the negative logarithm of the Ki (pKi) was 7.58.

For `Cn1cc([C@H]2CCCN2C(=O)c2cccc(-c3cnc4c(c3)C3(CC3)CN4)c2F)cn1` (single isomer, unassigned) [Compound 174a], the pKi was 7.13.

Molecule `Cn1cc([C@@H]2CCCN2C(=O)c2cccc(-c3cnc4c(c3)C3(CC3)CN4)c2F)cn1` (single isomer, unassigned) [Compound 174b] gave a negative-log Ki (pKi) of 6.24.

In turn, `Cn1cc([C@H]2CCCCN2C(=O)c2cccc(-c3cnc4c(c3)C3(CC3)CN4)c2F)cn1` (single isomer, unassigned) [Compound 175a] had a negative-log Ki (pKi) of 8.38.

Consider `Cn1cc([C@@H]2CCCCN2C(=O)c2cccc(-c3cnc4c(c3)C3(CC3)CN4)c2F)cn1` (single isomer, unassigned) [Compound 175b], for which the pKi is 6.02.

`Cn1cccc(-c2cccc(-c3cnc4c(c3Cl)[C@]3(CC[C@](C)(C(N)=O)C3)CN4)c2)c1=O` (single isomer, unassigned) [Compound 179a]: the negative logarithm of the Ki (pKi) is 6.71.

`Cn1cccc(-c2cccc(-c3cnc4c(c3Cl)[C@@]3(CC[C@@](C)(C(N)=O)C3)CN4)c2)c1=O` (single isomer, unassigned) [Compound 179b] gave a negative logarithm of the Ki (pKi) of 9.04.

The molecule `CC1(C#N)CCCN1C(=O)c1cccc(-c2cnc3c(c2)C2(CC2)CN3)c1F` (single isomer, unassigned) [Compound 191a] gave a pKi of 7.46.

In the case of `CC(C)[C@H]1C[C@@]12CNc1ncc(-c3ccc(N)c(C(=O)N(C)C)c3F)c(Cl)c12` (single isomer, unassigned) [Compound 193a], the negative logarithm of the Ki (pKi) was 8.44.

`CC(C)[C@@H]1C[C@]12CNc1ncc(-c3ccc(N)c(C(=O)N(C)C)c3F)c(Cl)c12` (single isomer, unassigned) [Compound 193b] had a negative-log Ki (pKi) of 8.85.

The molecule `CN(C)C(=O)c1cccc(-c2cnc3c(c2Cl)[C@]2(CC[C@](C)(C(N)=O)C2)CN3)c1F` (single isomer, unassigned) [Compound 195b] had a pKi of 8.21.

For `CCC[C@H]1C[C@@]12CNc1ncc(-c3ccc(N)c(C(=O)N(C)C)c3F)c(Cl)c12` (single isomer, unassigned) [Compound 197a], the pKi was 8.29.

`CCC[C@@H]1C[C@]12CNc1ncc(-c3ccc(N)c(C(=O)N(C)C)c3F)c(Cl)c12` (single isomer, unassigned) [Compound 197b] had a pKi of 8.44.

For the molecule `CN(C)C(=O)c1cccc(-c2cnc3c(c2)[C@]2(CC[C@](C)(C(N)=O)C2)CN3)c1F` (single isomer, unassigned) [Compound 199a], the pKi was 6.03.

Regarding `CN(C)C(=O)c1cccc(-c2cnc3c(c2)[C@@]2(CC[C@@](C)(C(N)=O)C2)CN3)c1F` (single isomer, unassigned) [Compound 199b], the negative logarithm of the Ki (pKi) is 6.98.

For the molecule `C[C@]1(C(N)=O)CC[C@@]2(CNc3ncc(-c4cccc(N5CCOCC5=O)c4F)c(Cl)c32)C1` (single isomer, unassigned) [Compound 202b], the pKi is 7.66.

The molecule `CCC[C@H]1C[C@@]12CNc1ncc(-c3ccc(N)c(C(=O)N(C)C)c3F)cc12` (single isomer, unassigned) [Compound 217a] gave a pKi of 8.03.

Take `CCC[C@@H]1C[C@]12CNc1ncc(-c3ccc(N)c(C(=O)N(C)C)c3F)cc12` (single isomer, unassigned) [Compound 217b]: the pKi was 8.04.

`CCC[C@@H]1C[C@@]12CNc1ncc(-c3ccc(N)c(C(=O)N(C)C)c3F)cc12` (single isomer, unassigned) [Compound 217c] had a negative-log Ki (pKi) of 7.17.

On to `CCC[C@H]1C[C@]12CNc1ncc(-c3ccc(N)c(C(=O)N(C)C)c3F)cc12` (single isomer, unassigned) [Compound 217d], for which the negative logarithm of the Ki (pKi) is 7.63.

Molecule `C[C@H]1C[C@@]12CNc1ncc(-c3ccc(N)c(C(=O)N(C)C)c3F)c(Cl)c12` (single isomer, unassigned) [Compound 228a] showed a pKi of 8.32.

In the case of `C[C@@H]1C[C@]12CNc1ncc(-c3ccc(N)c(C(=O)N(C)C)c3F)c(Cl)c12` (single isomer, unassigned) [Compound 228b], the pKi was 8.76.

Turning to `C[C@H](c1cnn(C)c1)N(C)C(=O)c1cccc(-c2cnc3c(c2)C2(CC2)CN3)c1F` (single isomer, unassigned) [Compound 229a], the pKi was 7.96.

On to `C[C@@H](c1cnn(C)c1)N(C)C(=O)c1cccc(-c2cnc3c(c2)C2(CC2)CN3)c1F` (single isomer, unassigned) [Compound 229b], for which the pKi is 7.89.

`CC(C)[C@H]1C[C@@]12CNc1ncc(-c3ccc(N)c(C(=O)N(C)C)c3F)cc12` (single isomer, unassigned) [Compound 234a]: the negative-log Ki (pKi) is 8.41.

Consider `CC(C)[C@@H]1C[C@@]12CNc1ncc(-c3ccc(N)c(C(=O)N(C)C)c3F)cc12` (single isomer, unassigned) [Compound 234c], for which the pKi was 6.99.

For the molecule `CC(C)C1C[C@]12CNc1ncc(-c3ccc(N)c(C(=O)N(C)C)c3F)cc12` (single isomer, unassigned) [Compound 234d], the pKi is 7.29.

`Cn1cc([C@H]2CCCCN2C(=O)c2c(N)ccc(-c3cnc4c(c3Cl)C3(CC=CC3)CN4)c2F)cn1` (single isomer, unassigned) [Compound 239a] showed a pKi of 9.05.

Regarding `Cn1cc([C@@H]2CCCCN2C(=O)c2c(N)ccc(-c3cnc4c(c3Cl)C3(CC=CC3)CN4)c2F)cn1` (single isomer, unassigned) [Compound 239b], the pKi is 7.68.

For the molecule `Cn1cc([C@H]2CCCCN2C(=O)c2cccc(-c3cnc4c(c3Cl)C3(CC=CC3)CN4)c2F)cn1` (single isomer, unassigned) [Compound 240a], the negative logarithm of the Ki (pKi) is 8.41.

For `Cn1cc([C@@H]2CCCCN2C(=O)c2cccc(-c3cnc4c(c3Cl)C3(CC=CC3)CN4)c2F)cn1` (single isomer, unassigned) [Compound 240b], the pKi was 6.95.

Take `CC[C@H]1C[C@@]12CNc1ncc(-c3ccc(N)c(C(=O)N(C)C)c3F)cc12` (single isomer, unassigned) [Compound 243a]: the pKi was 8.24.

`CC[C@@H]1C[C@]12CNc1ncc(-c3ccc(N)c(C(=O)N(C)C)c3F)cc12` (single isomer, unassigned) [Compound 243b] showed a negative-log Ki (pKi) of 7.98.

Take `CC[C@@H]1C[C@@]12CNc1ncc(-c3ccc(N)c(C(=O)N(C)C)c3F)cc12` (single isomer, unassigned) [Compound 243c]: the pKi is 7.20.

Regarding `CC[C@H]1C[C@]12CNc1ncc(-c3ccc(N)c(C(=O)N(C)C)c3F)cc12` (single isomer, unassigned) [Compound 243d], the negative-log Ki (pKi) was 7.60.

Take `Cn1cc(C2CCCCN2C(=O)c2cccc(-c3cnc4c(c3Cl)[C@]3(CC[C@H](O)CC3)CN4)c2F)cn1` (single isomer, unassigned) [Compound 246a]: the pKi is 7.99.

Regarding `Cn1cc(C2CCCCN2C(=O)c2cccc(-c3cnc4c(c3Cl)[C@]3(CC[C@H](O)CC3)CN4)c2F)cn1` (single isomer, unassigned) [Compound 246b], the negative logarithm of the Ki (pKi) is 6.50.

As for `Cn1cc(C2CCCCN2C(=O)c2c(N)ccc(-c3cnc4c(c3)[C@]3(CC[C@H](O)CC3)CN4)c2F)cn1` (single isomer, unassigned) [Compound 253a], the pKi was 7.64.

As to `Cn1cc(C2CCCCN2C(=O)c2c(N)ccc(-c3cnc4c(c3Cl)[C@]3(CC[C@H](O)CC3)CN4)c2F)cn1` (single isomer, unassigned) [Compound 254a], the pKi was 8.28.

In turn, `Cn1cc(C2CCCCN2C(=O)c2c(N)ccc(-c3cnc4c(c3Cl)[C@]3(CC[C@H](O)CC3)CN4)c2F)cn1` (single isomer, unassigned) [Compound 254b] showed a pKi of 6.96.

Take `CN(C)C(=O)c1c(N)ccc(-c2cnc3c(c2Cl)[C@]2(CC[C@](C)(C#N)C2)CN3)c1F` (single isomer, unassigned) [Compound 261a]: the negative-log Ki (pKi) is 8.38.

In turn, `CN(C)C(=O)c1c(N)ccc(-c2cnc3c(c2Cl)[C@@]2(CC[C@@](C)(C#N)C2)CN3)c1F` (single isomer, unassigned) [Compound 261b] showed a pKi of 7.43.

`Cc1c(CC#N)ccnc1-c1cccc(-c2cnc3c(c2Cl)[C@]2(CC[C@](C)(C#N)C2)CN3)c1F` (single isomer, unassigned) [Compound 266a] gave a pKi of 7.19.

`Cc1c(CC#N)ccnc1-c1cccc(-c2cnc3c(c2Cl)[C@@]2(CC[C@@](C)(C#N)C2)CN3)c1F` (single isomer, unassigned) [Compound 266b] gave a pKi of 8.41.

`Cc1c(CC#N)ccnc1-c1cccc(-c2cnc3c(c2Cl)[C@]2(CC[C@](C)(C(N)=O)C2)CN3)c1F` (single isomer, unassigned) [Compound 267a] gave a pKi of 6.96.

Consider `Cc1c(CC#N)ccnc1-c1cccc(-c2cnc3c(c2Cl)[C@@]2(CC[C@@](C)(C(N)=O)C2)CN3)c1F` (single isomer, unassigned) [Compound 267b], for which the negative logarithm of the Ki (pKi) was 9.41.

With `CN(C)CCN(C)C(=O)c1c(N)ccc(-c2cnc3c(c2Cl)[C@]2(CC[C@](C)(C#N)C2)CN3)c1F` (single isomer, unassigned) [Compound 271a], the pKi was 7.60.

On to `Cc1c(CC#N)ccnc1-c1cc(N)cc(-c2cnc3c(c2Cl)[C@]2(CC[C@](C)(C#N)C2)CN3)c1` (single isomer, unassigned) [Compound 274a], for which the negative logarithm of the Ki (pKi) was 7.88.

Molecule `Cc1c(CC#N)ccnc1-c1cc(N)cc(-c2cnc3c(c2Cl)[C@]2(CC[C@](C)(C#N)C2)CN3)c1` (single isomer, unassigned) [Compound 274b] showed a pKi of 9.05.
